biological target: T1, SYK (Homo sapiens, UniProt P43405); test: SYK flash plate assay (enzyme assay); type: biochemical
T1 construct: 2.5 nM SYK, 400 nM Biotin-Aha-Aha-KEDPDYEWPSAKK
Outline: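 Radiometric Flashplate format: biotinylated peptide substrate (400 nM) and 33P-labelled ATP (10 μM) react with 2.5 nM enzyme for 1 hour at 30 °C in Hepes buffer, pH 7.5. After EDTA quench and washing, counts are taken; staurosporine defines non-specific signal, and IC50 values are derived.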

IC50 [nM] | SMILES
< 100 | CN(C)c1ccc(-c2nccn3nc(Nc4ccc5c(c4)NC(=O)C5(C)C)nc23)cn1 [E139, 6-[8-(6-dimethylamino-pyridin-3-yl)-[1,2,4]triazolo[1,5-a]pyrazin-2-ylamino]-3,3-dimethyl-1,3-dihydro-indol-2-one]
< 100 | CC1(C)C(=O)Nc2cc(Nc3nc4c(-c5cnn(C(C)(C)C)c5)nccn4n3)ccc21 [E140, 6-[8-(1-tert-butyl-1H-pyrazol-4-yl)-[1,2,4]triazolo[1,5-a]pyrazin-2-ylamino]-3,3-dimethyl-1,3-dihydro-indol-2-one]
100 to 300 | CC1(C)C(=O)Nc2cc(Nc3nc4c(N5CCC6(CCNCC6)C5=O)nccn4n3)ccc21 [E141, 2-[2-(3,3-dimethyl-2-oxo-2,3-dihydro-1H-indol-6-ylamino)-[1,2,4]triazolo[1,5-a]pyrazin-8-yl]-2,8-diaza-spiro[4.5]decan-1-one]
< 100 | CC1(C)C(=O)Nc2cc(Nc3nc4c(-c5ccc6c(c5)OCCO6)nccn4n3)ccc21 [E142, 6-[8-(2,3-dihydro-benzo[1,4]dioxin-6-yl)-[1,2,4]triazolo[1,5-a]pyrazin-2-ylamino]-3,3-dimethyl-1,3-dihydro-indol-2-one]
100 to 300 | CN1CCC(C)(C)c2cc(-c3nccn4nc(Nc5ccc6c(c5)NC(=O)C6(C)C)nc34)ccc21 [E143, 3,3-dimethyl-6-[8-(1,4,4-trimethyl-1,2,3,4-tetrahydro-quinolin-6-yl)-[1,2,4]triazolo[1,5-a]pyrazin-2-ylamino]-1,3-dihydro-indol-2-one]
< 100 | CN1CCOc2cc(-c3nccn4nc(Nc5ccc6c(c5)NC(=O)C6(C)C)nc34)cnc21 [E144, 3,3-dimethyl-6-[8-(4-methyl-3,4-dihydro-2H-pyrido[3,2-b][1,4]oxazin-7-yl)-[1,2,4]triazolo[1,5-a]pyrazin-2-ylamino]-1,3-dihydro-indol-2-one]
< 100 | CC1(C)C(=O)Nc2cc(Nc3nc4c(-c5cnn(CCO)c5)nccn4n3)ccc21 [E145, 6-{8-[1-(2-hydroxy-ethyl)-1H-pyrazol-4-yl]-[1,2,4]triazolo[1,5-a]pyrazin-2-ylamino)-3,3-dimethyl-1,3-dihydro-indol-2-one]
300 to 3000 | CC1(C)CCCc2ccc(-c3nccn4nc(Nc5ccc6c(c5)NC(=O)C6(C)C)nc34)cc21 [E146, 6-[8-(8,8-dimethyl-5,6,7,8-tetrahydro-naphthalen-2-yl)-[1,2,4]triazolo[1,5-a]pyrazin-2-ylamino]-3,3-dimethyl-1,3-dihydro-indol-2-one]
< 100 | CC1(C)C(=O)Nc2cc(Nc3nc4c(-c5cnn(C6CCOCC6)c5)nccn4n3)ccc21 [E148, 3,3-dimethyl-6-{8-[1-(tetrahydro-pyran-4-yl)-1H-pyrazol-4-yl]-[1,2,4]triazolo[1,5-a]pyrazin-2-ylamino}-1,3-dihydro-indol-2-one]
< 100 | CC1(C)C(=O)Nc2cc(Nc3nc4c(-c5cnoc5)nccn4n3)ccc21 [E149, 6-(8-isoxazol-4-yl-[1,2,4]triazolo[1,5-a]pyrazin-2-ylamino)-3,3-dimethyl-1,3-dihydro-indol-2-one]
< 100 | CC1(C)C(=O)Nc2cc(Nc3nc4c(-c5cnn(C6CCNCC6)c5)nccn4n3)ccc21 [E150, 3,3-dimethyl-6-[8-(1-piperidin-4-yl-1H-pyrazol-4-yl)-[1,2,4]triazolo[1,5-a]pyrazin-2-ylamino]-1,3-dihydro-indol-2-one]

The next lines start with the molecule.

SMILES | IC50 [nM]
CC1(C)C(=O)Nc2cc(Nc3nc4c(NCCCNc5nccn6nc(Nc7ccc8c(c7)NC(=O)C8(C)C)nc56)nccn4n3)ccc21 [E117, 6-[[8-[3-[[2-[(3,3-dimethyl-2-oxo-indolin-6-yl)amino]-[1,2,4]triazolo[1,5-a]pyrazin-8-yl]amino]propylamino]-[1,2,4]triazolo[1,5-a]pyrazin-2-yl]amino]-3,3-dimethyl-indolin-2-one] | 3000 to 50000
CC1(C)C(=O)Nc2cc(Nc3nc4c(NS(=O)(=O)c5ccc(N)cc5)nccn4n3)ccc21 [E118, 4-amino-N-[2-(3,3-dimethyl-2-oxo-2,3-dihydro-1H-indol-6-ylamino)-[1,2,4]triazolo[1,5-a]pyrazin-8-yl]benzenesulfonamide] | 3000 to 50000
CN(C)c1ccc2c(c1)N(c1nccn3nc(Nc4ccc5c(c4)NC(=O)C5(C)C)nc13)CC2 [E119, 6-[8-(6-dimethylamino-2,3-dihydro-indol-1-yl)-[1,2,4]triazolo[1,5-a]pyrazin-2-ylamino]-3,3-dimethyl-1,3-dihydro-indol-2-one] | 100 to 300
CC1(C)C(=O)Nc2cc(Nc3nc4c(N5CCC6(CNC(=O)CO6)C5)nccn4n3)ccc21 (centres unmarked) [E120, 2-[2-(3,3-dimethyl-2-oxo-2,3-dihydro-1H-indol-6-ylamino)-[1,2,4]triazolo[1,5-a]pyrazin-8-yl]-6-oxa-2,9-diaza-spiro[4.5]decan-8-one] | 300 to 3000
Cn1cc(-c2nccn3nc(Nc4cc5c(cc4F)C(C)(C)CC(=O)N5)nc23)cn1 [E121, 6-fluoro-4,4-dimethyl-7-[8-(1-methyl-1H-pyrazol-4-yl)-[1,2,4]triazolo[1,5-a]pyrazin-2-ylamino]-3,4-dihydro-1H-quinolin-2-one] | 300 to 3000
CC1(C)C(=O)Nc2cc(Nc3nc4c(NCCCN)nccn4n3)ccc21 [E122, 6-[8-(3-amino-propylamino)-[1,2,4]triazolo[1,5-a]pyrazin-2-ylamino]-3,3-dimethyl-1,3-dihydro-indol-2-one] | 300 to 3000
CC1(C)C(=O)Nc2cc(Nc3nc4c(OC5CCNC5)nccn4n3)ccc21 (centres unmarked) [E123, 3,3-dimethyl-6-[8-(pyrrolidin-3-yloxy)-[1,2,4]triazolo[1,5-a]pyrazin-2-ylamino]-1,3-dihydro-indol-2-one] | 3000 to 50000
CC1(C)C(=O)Nc2cc(Nc3nc4c(N5CCc6ccc(C#N)cc6C5)nccn4n3)ccc21 [E124, 2-[2-(3,3-dimethyl-2-oxo-2,3-dihydro-1H-indol-6-ylamino)-[1,2,4]triazolo[1,5-a]pyrazin-8-yl]-1,2,3,4-tetrahydro-isoquinoline-7-carbonitrile] | < 100
CC(C)(O)c1ccc(Nc2nc3c(N4CCCCCC4)nccn3n2)cc1N [E125, 2-[2-amino-4-(8-azepan-1-yl-[1,2,4]triazolo[1,5-a]pyrazin-2-ylamino)-phenyl]-propan-2-ol] | < 100
CC1(C)OC(C(F)(F)F)Nc2cc(Nc3nc4c(N5CCCCCC5)nccn4n3)ccc21 (centres unmarked) [E126, (8-azepan-1-yl-[1,2,4]triazolo[1,5-a]pyrazin-2-yl)-(4,4-dimethyl-2-trifluoromethyl-1,4-dihydro-2H-benzo[d][1,3]oxazin-7-yl)-amine] | < 100
CC(C)(OC(O)C(F)(F)F)c1ccc(Nc2nc3c(N4CCCCCC4)nccn3n2)cc1N (centres unmarked) [E127, 1-{1-[2-amino-4-(8-azepan-1-yl-[1,2,4]triazolo[1,5-a]pyrazin-2-ylamino)-phenyl]-1-methyl-ethoxy}-2,2,2-trifluoro-ethanol] | 300 to 3000
CC1(C)C(=O)Nc2cc(Nc3nc4c(N5CCc6ccc(C(N)=O)cc6C5)nccn4n3)ccc21 [E128, 2-[2-(3,3-dimethyl-2-oxo-2,3-dihydro-1H-indol-6-ylamino)-[1,2,4]triazolo[1,5-a]pyrazin-8-yl]-1,2,3,4-tetrahydro-isoquinoline-7-carboxylic acid amide] | < 100
CC1(C)C(=O)Nc2cc(Nc3nc4c(NC(=O)c5ccc6c(c5)NCC6)nccn4n3)ccc21 [E129, 2,3-dihydro-1H-indole-6-carboxylic acid [2-(3,3-dimethyl-2-oxo-2,3-dihydro-1H-indol-6-ylamino)-[1,2,4]triazolo[1,5-a]pyrazin-8-yl]-amide] | 300 to 3000
CC1(C)C(=O)Nc2cc(Nc3nc4c(N5CC6(CCNC6)c6cc(Cl)ccc65)nccn4n3)ccc21 (centres unmarked) [E130, 6-[8-(5-Chloro-spiro[indole-3,3′-pyrrolidin]-1-yl)-[1,2,4]triazolo[1,5-a]pyrazin-2-ylamino]-3,3-dimethyl-1,3-dihydro-indol-2-one] | 300 to 3000
CC1(C)C(=O)Nc2cc(Nc3nc4c(N5CCc6ccc(C(N)=O)cc65)nccn4n3)ccc21 [E131, 1-[2-(3,3-Dimethyl-2-oxo-2,3-dihydro-1H-indol-6-ylamino)-[1,2,4]triazolo[1,5-a]pyrazin-8-yl]-2,3-dihydro-1H-indole-6-carboxylic acid amide] | < 100
CC1(C)C(=O)Nc2cc(Nc3nc4c(-c5cc6n(n5)CCOC6)nccn4n3)ccc21 [E132, 6-[8-(6,7-Dihydro-4H-pyrazolo[5,1-c][1,4]oxazin-2-yl)-[1,2,4]triazolo[1,5-a]pyrazin-2-ylamino]-3,3-dimethyl-1,3-dihydro-indol-2-one] | 300 to 3000
CC1(C)C(=O)Nc2cc(Nc3nc4c(N5CCc6ccc(C#N)cc65)nccn4n3)ccc21 [E134, 1-[2-(3,3-dimethyl-2-oxo-2,3-dihydro-1H-indol-6-ylamino)-[1,2,4]triazolo[1,5-a]pyrazin-8-yl]-2,3-dihydro-1H-indole-6-carbonitrile] | < 100
CC1(C)C(=O)Nc2cc(Nc3nc4c(NC5CN6CCC5CC6)nccn4n3)ccc21 (centres unmarked) [E135, 6-[8-(1-aza-bicyclo[2.2.2]oct-3-ylamino)-[1,2,4]triazolo[1,5-a]pyrazin-2-ylamino]-3,3-dimethyl-1,3-dihydro-indol-2-one] | < 100
CC1(C)C(=O)Nc2cc(Nc3nc4c(N5CC[C@@]6(O)CCCC[C@H]6C5)nccn4n3)ccc21 [E136, 6-[8-((4aS,8aS)-4a-hydroxy-octahydro-isoquinolin-2-yl)-[1,2,4]triazolo[1,5-a]pyrazin-2-ylamino]-3,3-dimethyl-1,3-dihydro-indol-2-one] | < 100
CC1Cc2ccccc2N1c1nccn2nc(Nc3ccc4c(c3)NC(=O)C4(C)C)nc12 (centres unmarked) [E137, 3,3-dimethyl-6-[8-(2-methyl-2,3-dihydro-indol-1-yl)-[1,2,4]triazolo[1,5-a]pyrazin-2-ylamino]-1,3-dihydro-indol-2-one] | < 100
CN(C)CC1(O)CCCN(c2nccn3nc(Nc4ccc5c(c4)NC(=O)C5(C)C)nc23)CC1 (centres unmarked) [E138, 6-[8-(4-dimethylaminomethyl-4-hydroxy-azepan-1-yl)-[1,2,4]triazolo[1,5-a]pyrazin-2-ylamino]-3,3-dimethyl-1,3-dihydro-indol-2-one] | 100 to 300

— US9120804B2, “8-substituted 2-amino-[1,2,4] triazolo [1, 5-A] pyrazines as Syk tryrosine kinase inhibitors and GCN2 serin kinase inhibitors” (Merck Patent GmbH, priority 2012, dated 2015)
